Source: ChEMBL document CHEMBL3991601, “The target landscape of clinical kinase drugs” (Science, 2017)
Activity calls are given as the source filed them. For most assays here, no stated cut-off is given here; in the data, actives have a measured Kd and inactives only a lower limit.

What was measured:
[1] = target: T1, Tyrosine--tRNA ligase, cytoplasmic (Homo sapiens, UniProt P54577)
T1 sequence (P54577 whole entry): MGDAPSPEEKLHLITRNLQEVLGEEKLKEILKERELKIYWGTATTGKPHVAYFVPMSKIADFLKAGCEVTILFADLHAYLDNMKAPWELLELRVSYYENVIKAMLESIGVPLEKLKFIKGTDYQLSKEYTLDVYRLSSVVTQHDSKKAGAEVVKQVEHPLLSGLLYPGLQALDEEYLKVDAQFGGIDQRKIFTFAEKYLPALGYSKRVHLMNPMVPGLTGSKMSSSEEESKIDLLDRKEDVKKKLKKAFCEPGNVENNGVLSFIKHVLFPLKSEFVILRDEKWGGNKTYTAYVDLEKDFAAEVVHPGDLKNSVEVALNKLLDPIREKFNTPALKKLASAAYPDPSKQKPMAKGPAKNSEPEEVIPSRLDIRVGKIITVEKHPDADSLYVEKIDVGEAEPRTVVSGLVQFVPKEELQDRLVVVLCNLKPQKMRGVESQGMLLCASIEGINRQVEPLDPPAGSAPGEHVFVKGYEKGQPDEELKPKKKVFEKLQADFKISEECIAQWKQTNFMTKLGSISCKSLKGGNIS

[2] = target: Casein kinase I isoform delta (Homo sapiens, UniProt P48730)
Chain of Casein kinase I isoform delta (P48730 whole entry, canonical isoform): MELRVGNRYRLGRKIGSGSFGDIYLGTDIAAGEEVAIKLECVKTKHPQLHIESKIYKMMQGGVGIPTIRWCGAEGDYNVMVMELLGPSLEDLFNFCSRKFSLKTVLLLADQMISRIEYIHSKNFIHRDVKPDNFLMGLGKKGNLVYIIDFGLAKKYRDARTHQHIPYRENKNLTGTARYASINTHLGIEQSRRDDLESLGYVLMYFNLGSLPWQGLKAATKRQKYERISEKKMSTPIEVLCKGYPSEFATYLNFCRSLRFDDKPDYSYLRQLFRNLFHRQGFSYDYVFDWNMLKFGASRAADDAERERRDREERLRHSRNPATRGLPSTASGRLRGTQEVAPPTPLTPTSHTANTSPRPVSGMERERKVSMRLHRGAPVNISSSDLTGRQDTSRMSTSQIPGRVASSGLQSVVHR

[3] = target: T2, Bone morphogenetic protein receptor type-2 (Homo sapiens, UniProt Q13873)
T2 sequence (Q13873 whole entry): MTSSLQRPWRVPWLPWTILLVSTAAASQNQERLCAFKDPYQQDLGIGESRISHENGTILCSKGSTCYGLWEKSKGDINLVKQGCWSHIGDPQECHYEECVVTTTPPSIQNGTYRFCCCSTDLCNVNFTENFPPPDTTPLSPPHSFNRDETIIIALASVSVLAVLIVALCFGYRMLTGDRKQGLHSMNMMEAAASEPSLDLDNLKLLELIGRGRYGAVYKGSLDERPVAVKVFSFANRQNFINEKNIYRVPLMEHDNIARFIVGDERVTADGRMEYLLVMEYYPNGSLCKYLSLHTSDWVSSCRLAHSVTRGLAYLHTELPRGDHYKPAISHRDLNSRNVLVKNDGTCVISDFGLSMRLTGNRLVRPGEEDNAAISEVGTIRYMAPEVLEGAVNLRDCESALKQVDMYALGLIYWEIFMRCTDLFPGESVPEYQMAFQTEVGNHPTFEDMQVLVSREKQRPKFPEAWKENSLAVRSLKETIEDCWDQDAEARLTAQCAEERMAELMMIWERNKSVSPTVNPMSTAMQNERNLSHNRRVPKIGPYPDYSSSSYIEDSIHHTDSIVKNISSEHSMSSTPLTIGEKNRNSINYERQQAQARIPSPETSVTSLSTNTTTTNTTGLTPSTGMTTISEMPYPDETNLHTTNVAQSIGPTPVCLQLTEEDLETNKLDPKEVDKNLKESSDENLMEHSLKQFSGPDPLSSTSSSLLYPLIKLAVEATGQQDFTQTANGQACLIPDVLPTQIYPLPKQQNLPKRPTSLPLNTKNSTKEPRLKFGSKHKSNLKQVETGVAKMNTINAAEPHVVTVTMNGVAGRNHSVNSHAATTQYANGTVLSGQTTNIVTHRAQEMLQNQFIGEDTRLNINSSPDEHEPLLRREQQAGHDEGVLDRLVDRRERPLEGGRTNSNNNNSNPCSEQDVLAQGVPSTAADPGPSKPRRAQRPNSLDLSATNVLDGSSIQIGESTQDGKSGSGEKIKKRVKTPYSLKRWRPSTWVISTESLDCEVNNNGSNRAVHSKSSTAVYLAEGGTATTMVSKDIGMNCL

[4] = target: Serine/threonine-protein kinase/endoribonuclease IRE1 (Homo sapiens, UniProt O75460)
Chain of Serine/threonine-protein kinase/endoribonuclease IRE1 (O75460 whole entry): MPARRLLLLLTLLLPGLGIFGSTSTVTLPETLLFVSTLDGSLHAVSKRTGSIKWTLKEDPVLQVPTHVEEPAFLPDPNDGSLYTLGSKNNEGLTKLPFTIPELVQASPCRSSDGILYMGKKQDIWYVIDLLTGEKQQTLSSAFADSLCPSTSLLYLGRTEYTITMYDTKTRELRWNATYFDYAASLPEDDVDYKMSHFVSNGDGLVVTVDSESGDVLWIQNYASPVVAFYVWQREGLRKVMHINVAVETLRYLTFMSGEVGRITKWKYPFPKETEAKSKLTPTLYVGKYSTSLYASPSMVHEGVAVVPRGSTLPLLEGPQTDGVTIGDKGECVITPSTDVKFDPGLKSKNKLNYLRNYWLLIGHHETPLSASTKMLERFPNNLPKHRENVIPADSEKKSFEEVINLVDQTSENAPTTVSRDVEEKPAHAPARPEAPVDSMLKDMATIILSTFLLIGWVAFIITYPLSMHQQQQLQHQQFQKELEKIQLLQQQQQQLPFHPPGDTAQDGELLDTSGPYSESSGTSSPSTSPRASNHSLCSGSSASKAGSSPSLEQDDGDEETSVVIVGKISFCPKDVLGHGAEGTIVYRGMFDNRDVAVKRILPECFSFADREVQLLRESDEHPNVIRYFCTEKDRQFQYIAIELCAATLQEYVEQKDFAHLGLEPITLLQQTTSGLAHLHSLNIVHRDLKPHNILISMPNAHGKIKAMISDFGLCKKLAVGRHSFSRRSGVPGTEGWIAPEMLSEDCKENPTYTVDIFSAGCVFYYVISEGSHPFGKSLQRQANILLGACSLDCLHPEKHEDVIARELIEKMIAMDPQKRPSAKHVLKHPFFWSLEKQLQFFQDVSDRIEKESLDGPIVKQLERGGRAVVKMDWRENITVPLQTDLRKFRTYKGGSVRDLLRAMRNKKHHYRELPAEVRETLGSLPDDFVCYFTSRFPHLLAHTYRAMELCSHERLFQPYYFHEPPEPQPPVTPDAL

[5] = target: Bone morphogenetic protein receptor type-1B (Homo sapiens, UniProt O00238)
Chain of Bone morphogenetic protein receptor type-1B (O00238 whole entry): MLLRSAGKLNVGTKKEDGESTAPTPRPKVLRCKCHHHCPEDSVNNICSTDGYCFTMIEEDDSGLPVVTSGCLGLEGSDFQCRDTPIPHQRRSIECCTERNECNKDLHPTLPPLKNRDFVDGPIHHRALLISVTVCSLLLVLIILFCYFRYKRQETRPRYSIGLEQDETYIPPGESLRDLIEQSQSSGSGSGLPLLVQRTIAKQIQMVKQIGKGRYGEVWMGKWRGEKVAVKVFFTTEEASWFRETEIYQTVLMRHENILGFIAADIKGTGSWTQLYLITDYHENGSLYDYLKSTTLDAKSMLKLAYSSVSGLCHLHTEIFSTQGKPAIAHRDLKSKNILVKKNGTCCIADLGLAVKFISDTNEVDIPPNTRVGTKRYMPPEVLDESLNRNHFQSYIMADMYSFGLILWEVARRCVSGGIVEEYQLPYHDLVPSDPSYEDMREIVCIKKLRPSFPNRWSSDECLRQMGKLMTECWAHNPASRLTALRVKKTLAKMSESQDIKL

[6] = target: T3, Serine/threonine-protein kinase A-Raf (Homo sapiens, UniProt P10398)
T3 sequence (P10398 whole entry): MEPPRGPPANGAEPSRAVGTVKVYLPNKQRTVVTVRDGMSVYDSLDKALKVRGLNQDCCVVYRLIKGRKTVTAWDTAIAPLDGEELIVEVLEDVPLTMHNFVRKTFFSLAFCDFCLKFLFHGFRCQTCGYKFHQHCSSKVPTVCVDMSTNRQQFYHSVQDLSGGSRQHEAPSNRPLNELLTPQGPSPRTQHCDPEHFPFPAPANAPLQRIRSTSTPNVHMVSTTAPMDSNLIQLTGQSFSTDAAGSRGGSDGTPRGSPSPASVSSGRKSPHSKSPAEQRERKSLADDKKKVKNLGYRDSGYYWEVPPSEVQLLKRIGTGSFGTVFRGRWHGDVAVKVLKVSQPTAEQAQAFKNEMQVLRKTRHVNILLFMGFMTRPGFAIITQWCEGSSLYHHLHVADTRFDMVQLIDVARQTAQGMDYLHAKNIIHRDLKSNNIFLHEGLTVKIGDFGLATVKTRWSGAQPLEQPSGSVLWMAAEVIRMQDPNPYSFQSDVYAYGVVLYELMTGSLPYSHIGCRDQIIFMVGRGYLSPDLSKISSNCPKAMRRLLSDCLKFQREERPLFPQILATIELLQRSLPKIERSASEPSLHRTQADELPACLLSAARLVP

[7] = target: Tyrosine-protein kinase BTK (Homo sapiens, UniProt Q06187)
Chain of Tyrosine-protein kinase BTK (Q06187 whole entry): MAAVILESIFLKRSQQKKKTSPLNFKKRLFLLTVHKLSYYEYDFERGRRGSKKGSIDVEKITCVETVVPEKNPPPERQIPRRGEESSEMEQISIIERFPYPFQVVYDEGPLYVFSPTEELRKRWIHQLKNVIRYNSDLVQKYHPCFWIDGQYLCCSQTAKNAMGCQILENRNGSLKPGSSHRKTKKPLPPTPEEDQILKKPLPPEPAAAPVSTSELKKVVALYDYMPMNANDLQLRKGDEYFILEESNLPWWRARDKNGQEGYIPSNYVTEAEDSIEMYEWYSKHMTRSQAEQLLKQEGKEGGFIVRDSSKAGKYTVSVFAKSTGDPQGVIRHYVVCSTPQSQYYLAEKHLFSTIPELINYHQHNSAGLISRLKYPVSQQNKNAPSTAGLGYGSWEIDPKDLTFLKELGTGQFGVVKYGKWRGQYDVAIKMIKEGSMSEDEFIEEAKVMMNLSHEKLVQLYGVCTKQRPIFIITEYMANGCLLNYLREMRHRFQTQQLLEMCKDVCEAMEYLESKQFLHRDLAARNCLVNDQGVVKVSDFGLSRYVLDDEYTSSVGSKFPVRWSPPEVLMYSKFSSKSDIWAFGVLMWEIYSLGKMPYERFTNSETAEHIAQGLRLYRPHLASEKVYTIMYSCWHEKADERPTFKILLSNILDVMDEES

[8] = target: Mitogen-activated protein kinase 14 (Homo sapiens, UniProt Q16539)
Chain of Mitogen-activated protein kinase 14 (Q16539 whole entry): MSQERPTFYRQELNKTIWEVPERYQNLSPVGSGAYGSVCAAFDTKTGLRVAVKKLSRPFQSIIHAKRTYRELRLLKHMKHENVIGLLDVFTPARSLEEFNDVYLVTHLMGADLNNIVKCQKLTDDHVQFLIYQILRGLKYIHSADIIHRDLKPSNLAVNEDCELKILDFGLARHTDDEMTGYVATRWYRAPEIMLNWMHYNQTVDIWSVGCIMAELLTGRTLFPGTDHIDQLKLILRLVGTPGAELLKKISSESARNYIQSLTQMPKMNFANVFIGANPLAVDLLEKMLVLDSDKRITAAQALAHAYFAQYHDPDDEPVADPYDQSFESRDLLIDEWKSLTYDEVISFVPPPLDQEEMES

Structure (SMILES) | Kd [1] | Kd [2] | Kd [3] | Kd [4] | Kd [5] | Kd [6] | Kd [7] | Kd [8]
CO[C@H]1C[C@@H]2CC[C@@H](C)[C@@](O)(O2)C(=O)C(=O)N2CCCC[C@H]2C(=O)O[C@H]([C@H](C)C[C@@H]2CC[C@@H](OP(C)(C)=O)[C@H](OC)C2)CC(=O)[C@H](C)/C=C(\C)[C@@H](O)[C@@H](OC)C(=O)[C@H](C)C[C@H](C)/C=C/C=C/C=C/1C [RIDAFOROLIMUS] | > 30 µM (inactive) | > 30 µM (inactive) | > 30 µM (inactive) | > 30 µM (inactive) | > 30 µM (inactive) | > 30 µM (inactive) | > 30 µM (inactive) | > 30 µM (inactive)
N#CC1(c2ccc(NC(=O)c3cccnc3NCc3ccncc3)cc2)CCCC1 [RIVOCERANIB] | > 30 µM (inactive) | > 30 µM (inactive) | > 30 µM (inactive) | > 30 µM (inactive) | > 30 µM (inactive) | > 30 µM (inactive) | > 30 µM (inactive) | > 30 µM (inactive)
O=c1[nH]ccc2cc(OC3CCNCC3)ccc12 [SAR-407899 FREE BASE] | > 30 µM (inactive) | > 30 µM (inactive) | > 30 µM (inactive) | > 30 µM (inactive) | > 30 µM (inactive) | > 30 µM (inactive) | > 30 µM (inactive) | > 30 µM (inactive)
CN1CCN(CCOc2cc(OC3CCOCC3)c3c(Nc4c(Cl)ccc5c4OCO5)ncnc3c2)CC1 [SARACATINIB] | > 30 µM (inactive) | > 30 µM (inactive) | > 30 µM (inactive) | > 30 µM (inactive) | 0.029 µM | > 30 µM (inactive) | 10.2 µM (active) | > 30 µM (inactive)
Cn1cc(-c2cnn3c(N)c(Br)c([C@@H]4CCCNC4)nc23)cn1 [SCH-900776] | > 30 µM (inactive) | > 30 µM (inactive) | > 30 µM (inactive) | > 30 µM (inactive) | > 30 µM (inactive) | > 30 µM (inactive) | > 30 µM (inactive) | > 30 µM (inactive)
CO[C@H]1C[C@@H]2CC[C@@H](C)[C@@](O)(O2)C(=O)C(=O)N2CCCC[C@H]2C(=O)O[C@H]([C@H](C)C[C@@H]2CC[C@@H](O)[C@H](OC)C2)CC(=O)[C@H](C)/C=C(\C)[C@@H](O)[C@@H](OC)C(=O)[C@H](C)C[C@H](C)/C=C/C=C/C=C/1C [SIROLIMUS] | > 30 µM (inactive) | > 30 µM (inactive) | > 30 µM (inactive) | > 30 µM (inactive) | > 30 µM (inactive) | > 30 µM (inactive) | > 30 µM (inactive) | > 30 µM (inactive)
CCS(=O)(=O)c1cccc(-c2cc(C(=O)NC3CCN(C)CC3)c(C)c3[nH]c4ncc(C)cc4c23)c1 [TAK-901] | > 30 µM (inactive) | > 30 µM (inactive) | > 30 µM (inactive) | > 30 µM (inactive) | > 30 µM (inactive) | > 30 µM (inactive) | 0.328 µM (active) | > 30 µM (inactive)
CO[C@H]1C[C@@H]2CC[C@@H](C)[C@@](O)(O2)C(=O)C(=O)N2CCCC[C@H]2C(=O)O[C@H]([C@H](C)C[C@@H]2CC[C@@H](OC(=O)C(C)(CO)CO)[C@H](OC)C2)CC(=O)[C@H](C)/C=C(\C)[C@@H](O)[C@@H](OC)C(=O)[C@H](C)C[C@H](C)/C=C/C=C/C=C/1C [TEMSIROLIMUS] | > 30 µM (inactive) | > 30 µM (inactive) | > 30 µM (inactive) | > 30 µM (inactive) | > 30 µM (inactive) | > 30 µM (inactive) | > 30 µM (inactive) | > 30 µM (inactive)
COc1cc2c(Nc3ccc(Cl)c(Cl)c3F)ncnc2cc1OC[C@@H]1C[C@@H]2CN(C)C[C@@H]2C1 [TESEVATINIB] | > 30 µM (inactive) | > 30 µM (inactive) | > 30 µM (inactive) | > 30 µM (inactive) | > 30 µM (inactive) | > 30 µM (inactive) | 1.62 µM (active) | > 30 µM (inactive)
O=C(Cc1ccc(-c2ccc(OCCN3CCOCC3)cc2)cn1)NCc1ccccc1 [TIRBANIBULIN] | > 30 µM (inactive) | > 30 µM (inactive) | > 30 µM (inactive) | > 30 µM (inactive) | > 30 µM (inactive) | > 30 µM (inactive) | > 30 µM (inactive) | > 30 µM (inactive)
O=C1NC(=O)[C@@H](c2cn3c4c(cccc24)CCC3)[C@@H]1c1c[nH]c2ccccc12 [TIVANTINIB] | > 30 µM (inactive) | > 30 µM (inactive) | > 30 µM (inactive) | > 30 µM (inactive) | > 30 µM (inactive) | > 30 µM (inactive) | > 30 µM (inactive) | > 30 µM (inactive)
C[C@@H](NC(=O)c1ncnc(N)c1Cl)c1ncc(C(=O)Nc2cc(C(F)(F)F)c(Cl)cn2)s1 [TOVORAFENIB] | > 30 µM (inactive) | > 30 µM (inactive) | > 30 µM (inactive) | > 30 µM (inactive) | > 30 µM (inactive) | > 30 µM (inactive) | > 30 µM (inactive) | 0.358 µM (active)
Cc1cc(Nc2ncnc3ccc(NC4=NC(C)(C)CO4)cc23)ccc1Oc1ccn2ncnc2c1 [TUCATINIB] | > 30 µM (inactive) | > 30 µM (inactive) | > 30 µM (inactive) | > 30 µM (inactive) | > 30 µM (inactive) | > 30 µM (inactive) | > 30 µM (inactive) | > 30 µM (inactive)
Cn1ncc(Cl)c1-c1cc(C(=O)N[C@H](CN)Cc2ccc(F)c(F)c2)oc1Cl [UPROSERTIB] | > 30 µM (inactive) | > 30 µM (inactive) | > 30 µM (inactive) | > 30 µM (inactive) | > 30 µM (inactive) | > 30 µM (inactive) | > 30 µM (inactive) | > 30 µM (inactive)
CN1C/C=C/CCOc2cccc(c2)-c2ccnc(n2)Nc2cccc(c2)C1 [ZOTIRACICLIB] | > 30 µM (inactive) | 2.38 µM (active) | > 30 µM (inactive) | > 30 µM (inactive) | > 30 µM (inactive) | > 30 µM (inactive) | > 30 µM (inactive) | > 30 µM (inactive)
